Measured values published in patent US7354949B2, “Therapeutic agent for bladder irritative symptoms associated with benign prostatic hyperplasia” (Kyowa Hakko Kogyo Co., Ltd., priority 2001, dated 2008).

Key:
[1] = tested on: rats with partial urethral obstruction; test: Inhibitory activity on urinary frequency due to partial urethral obstruction (micturition test in metabolic cages); type: in vivo, rat
Description: (§1) The experiment was carried out according to the method of Saito, et al. [J. Urol., Vol. 150, pp. 1045-1051 (1993)].
(§2) Male SD rats of 8 to 9 weeks of age (supplied by Japan SLC) were used in the test. Five to seven animals of these rats were put in each metal cage and reared by allowing them to freely take commercially available chow and water, in an animal room at room temperature between 19 and 25° C. and humidity between 30 and 70% under illumination for 12 hours (from 7:00 a.m. to 7:00 p.m.) per day.
The rats were subjected to operation of partial urethral obstruction. Each rat was anesthetized by intraperitoneal administration of 50 mg/kg pentobarbital sodium (Dainippon Pharmaceutical Co., Ltd.) and placed in the supine position. The abdominal midline incision was made in a length of about 1 cm to expose the bladder, prostate and the urethra. After the bladder neck and base were peeled from the prostate, two surgical suture threads (No. 3, Natsume Seisakusho Co., Ltd.) were passed behind the urethral base. A polyethylene tube (PE-200, Nippon Becton Dickinson Co., Ltd.) was placed along the urethra, and the urethra was loosely double-ligated together with the tube. The ligation was made in such a manner that the urethra was not pressed with the polyethylene tube and the suture was not slack. Then, the polyethylene tube was pulled out and the urethra was partially obstructed. The incised part of abdomen was sutured with a surgical thread.
Five to seven days after the partial urethral obstruction operation, the rats with partial urethral obstruction and the sham-operated rats were put in metabolic cages (KN-649, Natsume Seisakusho Co., Ltd.). For acclimation, the rats were reared for one day with free drinking and feeding, and the micturition test was started the following day. The amount of urination in the rats was continuously measured as the weight using an electronic balance (HF-200, A & D Company Ltd.), and was recorded on a thermal array recorder (RTA-1200, Nihon Kohden Corp.) via a direct current amplifier (AD-601G, Nihon Kohden Corp.). The data were collected during the light period under illumination (9:00-18:00) and the dark period without illumination (19:00-4:00), and the number of micturitions and the micturition volume in each period were measured to calculate the urinary frequency (the number of micturitions per 9 hours), the voided volume per micturition and the total urine volume as the measurement parameters. The voided volume per micturition was calculated by dividing the total urine volume per 9 hours by the urinary frequency per 9 hours. On the next day, a test compound or a vehicle (0.5 w/v% aqueous methylcellulose 400 cP solution) was orally administered twice (between 8:00 and 9:00, and between 18:00 and 19:00). The number of micturitions and the urine volume were measured from 9:00 to 18:00 and from 19:00 to 4:00 in the same manner as on the previous day to obtain the measurement values. The changes in the values of each parameter induced by the administration of the compound were also calculated. In the sham-operated group, the urinary frequency, the voided volume per micturition and the total urine volume obtained on the first day of the micturition test were compared with those in the groups of partial urethral obstruction. The average±standard error of the urinary frequency, voided volume per micturition and the total urine volume was calculated for each group.

[2] = tested on: rats with partial urethral obstruction; test: Activity to increase the bladder capacity of rats with partial urethral obstruction (intravesical saline infusion); type: in vivo, rat; settings: summary of Test Example 2
Description: as §1
as §2, with “to seven rats were” for “to seven animals of these rats were”, “room at a room temperature” for “room at room temperature”
The rats were subjected to operation of partial urethral obstruction. […]
Five to seven days after the operation of the partial urethral obstruction and the catheter implantation, the rats with partial urethral obstruction and the sham-operated rats were put in Bollman cages (KN-326-1, Natsume Seisakusho Co., Ltd.) under restraint. […] One end of the cock was connected to a pressure transducer (DX-360, Nihon Kohden Corp.), and the intravesical pressure signal was amplified via a strain pressure amplifier (AP-601G, Nihon Kohden Corp.), measured with a polygraph (RMP-6008, Nihon Kohden Corp.) and recorded on a thermal array recorder (RTA-1200, Nihon Kohden Corp.). […] The bladder capacity was calculated from the period of time until occurrence of micturition (infusion rate 6 ml/h×infusion time). […]

dd male mice = test: Acute toxicity test; type: in vivo; settings: oral administration, mortality on the seventh day
Description: The test compound was administered orally or intraperitoneally to animals per group of dd male mice (body weight: 20±1 g). The minimum lethal dose (MLD) value was obtained by observing mortality on the seventh day after the administration.

[3] = Dark period (Active period), after oral administration
[4] = Dark period (Active period), before administration
[5] = Light period (Inactive period), after oral administration
[6] = Light period (Inactive period), before administration

Compound C[C@](O)(C(=O)Nc1cccc2c1C(=O)c1sccc1CS2(=O)=O)C(F)(F)F [Compound 1, (S)-(+)-N-(5,5-dioxido-10-oxo-4,10-dihydrothieno[3,2-c][1]benzothiepin-9-y1)-3,3,3-trifluoro-2-hydroxy-2-methylpropanamide] has a Total urine volume [1, 3] of 4.83 ± 0.83 mL/9 hours, a Urinary frequency [1, 3] of 6.7 ± 1.2 micturitions/9 hours and a Total urine volume [1, 4] of 3.57 ± 0.57 mL/9 hours. It also gave a Urinary frequency [1, 4] of 10.0 ± 1.3 micturitions/9 hours, a Total urine volume [1, 5] of 4.76 ± 0.78 mL/9 hours and a Urinary frequency [1, 5] of 5.3 ± 0.4 micturitions/9 hours. For the same compound, the Total urine volume [1, 6] was 4.80 ± 0.31 mL/9 hours, the Urinary frequency [1, 6] was 8.7 ± 0.8 micturitions/9 hours and the “effect on urinary frequency (in words)” value ([1]; summary of Test Example 1) was “significantly decreased”. The “effect on voided volume per micturition (in words)” value ([1]; summary of Test Example 1) was “tended to increase”, the “effect on bladder capacity (in words)” value [2] was “tended to increase” and the “effect on micturition volume (in words)” value [2] was “significantly increased”. For the same compound, the “minimum lethal dose (MLD)” value (dd male mice) was > 1000 mg/kg.
